Test results reported in patent US20240116985A1, “STAPLED PEPTIDES AND METHODS THEREOF” (priority 2020, published 2024).
Where two headings read alike, the source gives them in different places.

Assays:
[1] = biological target: T1, full-length beta-Catenin (Uniprot ID P35222) (Homo sapiens, UniProt P35222); assay: Fluorescence polarization IC50 (beta-catenin / 5FAM-TCF4 10-53 competition); assay type: binding
T1 construct: 10 nM full-length beta-Catenin (Uniprot ID P35222)
T1 sequence (P35222 1-781): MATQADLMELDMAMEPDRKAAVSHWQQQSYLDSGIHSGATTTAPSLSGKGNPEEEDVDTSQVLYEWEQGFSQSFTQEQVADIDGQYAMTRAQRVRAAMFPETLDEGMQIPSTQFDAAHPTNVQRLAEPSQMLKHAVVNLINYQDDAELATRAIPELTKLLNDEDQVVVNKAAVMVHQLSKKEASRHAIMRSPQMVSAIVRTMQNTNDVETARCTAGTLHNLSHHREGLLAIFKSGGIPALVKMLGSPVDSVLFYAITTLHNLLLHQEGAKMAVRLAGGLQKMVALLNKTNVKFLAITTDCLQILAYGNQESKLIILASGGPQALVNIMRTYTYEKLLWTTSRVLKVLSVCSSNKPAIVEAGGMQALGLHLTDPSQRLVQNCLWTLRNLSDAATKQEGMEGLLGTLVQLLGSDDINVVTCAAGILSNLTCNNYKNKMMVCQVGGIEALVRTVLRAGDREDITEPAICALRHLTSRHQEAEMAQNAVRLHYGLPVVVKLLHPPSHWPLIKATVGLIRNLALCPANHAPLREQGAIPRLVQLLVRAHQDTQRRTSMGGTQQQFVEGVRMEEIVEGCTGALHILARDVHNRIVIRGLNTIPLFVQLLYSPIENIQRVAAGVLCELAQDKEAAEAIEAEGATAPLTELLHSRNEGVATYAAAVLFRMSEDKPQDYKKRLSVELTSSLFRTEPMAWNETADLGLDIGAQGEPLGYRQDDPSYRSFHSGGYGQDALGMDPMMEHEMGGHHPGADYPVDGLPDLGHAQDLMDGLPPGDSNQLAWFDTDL

[2] = biological target: T2, beta-catenin/TCF4 engagement (Homo sapiens, UniProt P35222); assay: Nano-BRET target engagement assay (B-cat-Halo & TCF4-Luc in HEK293 cells); assay type: cell-based; conditions: read-out: NanoBRET Abs IC50
T2 construct: expressed in transfected cells; host or cells: HEK293
T2 sequence (P35222 1-781): T1 sequence (P35222 1-781)

[3] = fluorescence polarization; read-out: beta-Catenin FP IC50

Row | SMILES | IC50 [1, 3] [nM] | IC50 [2] [nM] | IC50 ([2]; absolute IC50) [nM] | IC50 ([1]; read-out: beta-Catenin FP IC50; fluorescence polarization) [nM]
1 | CC(=O)N1CCC[C@]12CC=CCCCC1(CCCC=CCCCOC(=O)N3CC[C@@](C(=O)N[C@@H](Cc4ccsc4)C(=O)N[C@@H](Cc4csc5ccccc45)C(=O)N[C@@H](CCC(N)=O)C(N)=O)(C3)NC(=O)[C@H](CC(C)C)NC(=O)[C@H](Cc3ccccc3)NC(=O)[C@H](C)NC(=O)[C@H](C)NC(=O)[C@H](CCN(CC(=O)O)Cc3ccccc3)NC(=O)[C@H](CC(=O)O)NC1=O)NC(=O)[C@H](CC(C)(C)C)NC(=O)[C@H](CC(=O)O)NC2=O (stereo partly drawn) [I-1834, Ac-PL3-Asp-Npg-B5-Asp-[Bn]GAbu-Ala-Ala-Phe-Leu-PyrS2-3Thi-BztA-Gln-NH2] | 35 |  | 18800 | 
2 | CC(=O)N1CCC[C@]12CC=CCCCC1(CCCC=CCCCCCC[C@@](C)(C(=O)N[C@@H](Cc3ccsc3)C(=O)N[C@@H](Cc3csc4ccccc34)C(=O)N[C@@H](CCC(N)=O)C(N)=O)NC(=O)[C@H](CC(N)=O)NC(=O)[C@H](Cc3ccccc3)NC(=O)[C@H](C)NC(=O)[C@H](C)NC(=O)[C@H](CN(CC(=O)O)Cc3ccccc3)NC(=O)[C@H](CC(=O)O)NC1=O)NC(=O)[C@H](CC(C)(C)C)NC(=O)[C@H](CC(=O)O)NC2=O (stereo partly drawn) [I-1456, Ac-PL3-Asp-Npg-B5-Asp-[Bn]GA-Ala-Ala-Phe-Asn-S8-3Thi-BztA-Gln-NH2] | 16 |  | 23700 | 
3 | CC(=O)N1CCC[C@]12CC=CCCCC1(CCCC=CCCCOC(=O)N3CC[C@@](C(=O)N[C@@H](Cc4ccsc4)C(=O)N[C@@H](Cc4csc5ccccc45)C(=O)N[C@@H](CCC(=O)N4CC[C@@H](N(C)C)C4)C(N)=O)(C3)NC(=O)[C@H](CC(C)C)NC(=O)[C@H](Cc3ccccc3)NC(=O)[C@H](C)NC(=O)[C@H](C)NC(=O)[C@H](CN(CC(=O)O)CC(F)(F)F)NC(=O)[C@H](CC(=O)O)NC1=O)NC(=O)[C@H](CC(C)(C)C)NC(=O)[C@H](CC(=O)O)NC2=O (stereo partly drawn) [I-1805, Ac-PL3-Asp-Npg-B5-Asp-TfeGA-Ala-Ala-Phe-Leu-PyrS2-3Thi-BztA-[RDMAPyr]GlnR-NH2] | 6 |  | 9300 | 
4 | CC(=O)N1CCC[C@]12CC=CCCCC1(CCCC=CCCCOC(=O)N3CC[C@@](C(=O)N[C@@H](Cc4ccsc4)C(=O)N[C@@H](Cc4csc5ccccc45)C(=O)N[C@@H](CCC(N)=O)C(N)=O)(C3)NC(=O)[C@H](CC(C)C)NC(=O)[C@H](Cc3ccccc3)NC(=O)[C@H](C)NC(=O)[C@H](C)NC(=O)[C@H](CC(=O)O)NC(=O)[C@H](CC(=O)O)NC1=O)NC(=O)[C@H](CC(C)(C)C)NC(=O)[C@H](CC(=O)OCCSSc1ccccc1)NC2=O (stereo partly drawn) [I-1952, Ac-PL3-[EtSSPh]AspE-Npg-B5-Asp-Asp-Ala-Ala-Phe-Leu-PyrS2-3Thi-BztA-Gln-NH2] |  | > 20000 |  | 923

Further lines, with some results ahead:

Row | IC50 [1, 3] [nM] | IC50 [2] [nM] | IC50 ([2]; absolute IC50) [nM] | SMILES | IC50 ([1]; read-out: beta-Catenin FP IC50; fluorescence polarization) [nM]
5 | 52 | 6400 |  | CC(=O)N1CCC[C@]12CC=CCCCC1(CCCC=CCCCOC(=O)N3CC[C@@](C(=O)N[C@@H](Cc4ccsc4)C(=O)N[C@@H](Cc4csc5ccccc45)C(=O)N[C@@H](Cc4ccccc4)C(N)=O)(C3)NC(=O)[C@H](CC(C)C)NC(=O)[C@H](Cc3ccccc3)NC(=O)[C@H](C)NC(=O)C(C)(C)NC(=O)[C@H](Cc3cccc(C(=O)O)c3)NC(=O)[C@H](CC(=O)O)NC1=O)NC(=O)[C@H](CC(C)(C)C)NC(=O)[C@H](CC(=O)O)NC2=O (stereo partly drawn) [I-1914, Ac-PL3-Asp-Npg-B5-Asp-3COOHF-Aib-Ala-Phe-Leu-PyrS2-3Thi-BztA-Phe-NH2] | 
6 | 16 | 8300 |  | CC(=O)N1CCC[C@]12CC=CCCCC1(CCCC=CCCCOC(=O)N3CC[C@@](C(=O)N[C@@H](Cc4ccsc4)C(=O)N[C@@H](Cc4csc5ccccc45)C(=O)N[C@@H](C)C(N)=O)(C3)NC(=O)[C@H](CC(C)C)NC(=O)[C@H](Cc3ccccc3)NC(=O)[C@H](C)NC(=O)[C@H]([C@@H](C)O)NC(=O)[C@H](Cc3cccc(C(=O)O)c3)NC(=O)[C@H](CC(=O)O)NC1=O)NC(=O)[C@H](CC(C)(C)C)NC(=O)[C@H](CC(=O)O)NC2=O (stereo partly drawn) [I-2051, Ac-PL3-Asp-Npg-B5-Asp-3COOHF-Thr-Ala-Phe-Leu-PyrS2-3Thi-BztA-Ala-NH2] | 
